# Legend:
# [1] = test system: phosphorylated GSK3 (Ser9); assay: Cellular pGSK3 assay (phospho-GSK3 ELISA); assay type: cell-based; details: Homo sapiens, MCF7 cells, compound incubated 48h
# Description: In order to study the cellular activity of the compounds according to the present invention, an ELISA-based assay has been established for the phosphorylated protein glycogen synthetase kinase 3 (GSK3). The assay is based on a solid phase sandwich ELISA that detects endogenous levels of phosphorylated GSK3 using a phospho-GSK3 (Ser9) specific antibody (BioSource International, Inc.; Catalog #KHO0461). After incubation with cell lysates, the coated antibody captures the phosphorylated GSK3 protein. Following extensive washing, GSK3 polyclonal antibody is added to detect the captured phospho-GSK3 protein. Secondary antibody (anti-rabbit IgG-HRP) is then used to recognize the bound detection antibody. After the second incubation and washing to remove all the excess anti-rabbit IgG-HRP, a substrate solution is added, which is acted upon by the bound enzyme to produce color. The intensity of this colored product is directly proportional to the concentration of GSK-3β [pS9] present in the original specimen. MCF7 cells (ATCC HTB-22) were seeded into 96 well fate bottom plates at a density of 10000 cells/well. After 24 h 1 µl each of the compound dilutions (test compounds were dissolved as 10 mM solutions in dimethylsulfoxide (DMSO) and subsequently diluted) were added into each well of the 96 well plates and incubated for 48h at 37°C in a humidified athmosphere containing 5% CO2. Cells were harvested and lysed in cell extraction buffer (10 mM Tris, pH 7.4, 100 mM NaCl, 1 mM EDTA, 1 mM EGTA, 1 mM NaF, 20 mM Na4P2O7, 2 mM Na3VO4, 1% Triton X-100, 10vol% glycerol, 0.1vol% SDS, 0.5vol% deoxycholate, 1 mM phenylmethylsulfonylfluorid (PMSF)). The lysate were centrifuged for 10 min. at 4°C and the supernatant were transferred to a new tube. 50 µl of sample diluent (standard diluent buffer, Biosource) were added and 100 µl of cell lysate transferred into the tube and vortexed. 100 µl of each diluted cell lysate were added to the appropriate ELISA well plate and incubated for 3h at room temperature. The plates were washed 4 times with 1x wash buffer (Biosource). 50 µl of detection antibody (GSK3 (Ser9) detection antibody; BioSource) were added to each well and incubated for 30 min. at room temperature. The washing procedure was repeated between each step. 100µl of HRP-linked secondary antibody (anti-mouse IgG HRP-linked antibody) were added to each well and incubated for 30 min. at room temperature. 100µl of TMB substrate (0.05vol% 3,3',5,5' tetramethylbenzidine, 0.1vol% hydrogen peroxide, complex polypeptides in a buffered solution; Biosource) were added to each well and incubated for 30 min. at room temperature. Finally 100 µl of Stop solution (0.05vol% α and β unsaturated carbonyl compound) were added to each well and the plate were shaked gently for a few seconds. The absorbance was measured at λ = 450 nm (Wallac Victor2; Perkin Elmer, USA) within 30 min. after adding the stop solution. The analysis of the data was performed using a statistical program (Excel; Microsoft, USA) and the IC50 of pGSK3 inhibition was determined.
# OvCAR3 cells = assay: Cellular proliferation / Cytotoxicity assay (Alamar Blue); assay type: cell-based; details: Homo sapiens, OVCAR-3, 48h incubation, Alamar Blue (Resazurin) cell viability, read-out: Anti-proliferative / Cytotoxic activity (OvCAR3 cells)
# Description: The anti-proliferative activity of the compounds as described herein, is evaluated using the OvCAR3, HCT116 and A549 cell lines and the Alamar Blue (Resazurin) cell viability assay (O'Brien et al. Eur J Biochem 267, 5421-5426, 2000). Resazurin is reduced to the fluorescent resorufin by cellular dehydrogenase activity, correlating with viable, proliferating cells. Test compounds are dissolved as 10 mM solutions in DMSO and subsequently diluted. Cells like HCT116 or A549 cells were seeded into 96 well flat bottom plates at a density of 10000 cells/well (OvCAR3 cells), 1000 cells/well (HCT116 cells) or 2000 cells/well (A549 cells) in a volume of 200 µl/well. 24 hours after seeding, 1 µl each of the compound dilutions are added into each well of the 96 well plates. Each compound dilution is tested as at least as duplicates. Wells containing untreated control cells were filled with 200 µl DMEM (Dulbecco's Modified Eagle Medium) containing 0.5vol% v:v DMSO. The cells are then incubated with the substances for 48h at 37°C in a humidified atmosphere containing 5vol% CO2. To determine the viability of the cells, 20 µl of a Resazurin solution (90mg / l) are added. After 4h incubation at 37°C, the fluorescence is measured by extinction at ? = 544 nm and an emission of ? = 590 nm (Wallac Victor2; Perkin Elmer, USA). For the calculation of the cell viability, the emission value from untreated cells is set as 100% viability and the fluorescence intensity of treated cells are set in relation to the values of untreated cells. Viabilities are expressed as % values. The corresponding IC50 values of the compounds for cytotoxic activity are determined from the concentration-effect curves by means of non-linear regression. The analysis of the data is performed using a biostatistical program (GraphPad Prism, USA). Representative IC50 values for anti-proliferative / cytotoxic potency determined in the aforementioned assay follow from the following table, in which the numbers of the compound correspond to the numbers of the examples.
smiles,measurement,setting,value
"CCc1cn2cc(-c3ccccc3)c(-c3ccc(CN4CCC(c5n[nH]c(-c6ccccn6)n5)CC4)cc3)nc2n1 [Example 17, 2-ethyl-6-phenyl-7-(4-{[4-(5-pyridin-2-yl-1,2,4-triazol-3-yl)piperidin-1-yl]methyl}phenyl)imidazo[1,2-a]pyrimidine]",IC50,[1],1 to 10 µM
same,IC50,OvCAR3 cells,< 1000 nM
"N#Cc1cnc2nc(-c3ccc(CN4CCC(c5n[nH]c(-c6ccccn6)n5)CC4)cc3)c(-c3ccccc3)cn12 [Example 8, 6-phenyl-7-(4-{[4-(5-pyridin-2-yl-1,2,4-triazol-3-yl)piperidin-1-yl]methyl}phenyl)imidazo[1,2-a]pyrimidine-3-carbonitrile]",IC50,[1],1 to 10 µM
same,IC50,OvCAR3 cells,> 1000 nM
